The OligoGym collection
After the bases stand the sugars from the 5' end (letter, count) and the backbone: PS all phosphorothioate, else s phosphorothioate and o phosphodiester by linkage. Methylation of C is not given here. l = locked nucleic acid (LNA); d = 2'-deoxy (DNA)

Molecular target: SNHG14
Conditions: ASO
[1] = Mouse Primary Neuronal Cell, 0.005 µM

Sequence	target mRNA inhibition (Human Neuronal Cell, 7.5 µM) [%]	target mRNA inhibition (Human Neuronal Cell, 0.2 µM) [%]	target mRNA inhibition (Human Neuronal Cell, 1 µM) [%]	further results
ATTGATTCAATTCCCTT (sugars l3 d8 l3 d1 l2, PS)	51	–	–	–
ATTGATTCAATTCCCTT (sugars lddlddddddddldlll, PS)	67	–	–	–
ATTGATTCAATTCCCTT (sugars lddlddddddddlldll, PS)	61	–	–	–
ATTGATTCAATTCCCTT (sugars ldldddddddddldlll, PS)	54	–	–	–
ATTTACACTTAATTATACTT (sugars lllldllddddddlldddll, PS)	38	–	–	–
ATTTCATATTACTAACTA (sugars l2 d12 l4, PS)	–	3	20	–
ATTTTTTTCTTACTATCTTC (sugars ldddllddddddddlddlll, PS)	58	–	–	–
ATTTTTTTCTTACTATCTTC (sugars ldlldlldddddddddddll, PS)	69	–	–	–
ATTTTTTTCTTACTATCTTC (sugars lldlddddddddddddldll, PS)	50	–	–	–
CAAACCTACGTCTCTC (sugars l2 d10 l4, PS)	–	31	26	–
CAAAGATCATTCTCAAC (sugars l1 d2 l2 d6 l6, PS)	34	–	–	–
CAACATTATTAACCACCTT (sugars l1 d14 l4, PS)	47	–	–	–
CAACATTATTAACCACCTTA (sugars l1 d13 l3 d1 l2, PS)	47	–	–	–
CAACATTATTAACCACCTTA (sugars ldldldddddddddddldll, PS)	51	–	–	–
CAACATTATTAACCACCTTA (sugars ldlldddddddddddlddll, PS)	57	–	–	–
CAACTATTATCTTCTT (sugars l2 d10 l4, PS)	–	42	61	–
CAACTCTATGACTACC (sugars l2 d10 l4, PS)	–	46	36	–
CAAGTTTCCTATATTCT (sugars l4 d11 l2, PS)	–	66	70	–
CACCTTAAGTAACATT (sugars l4 d10 l2, PS)	–	19	21	–
CACTAATAATTCACTTT (sugars l4 d11 l2, PS)	–	31	49	–
CAGCTTTTAACCAGAGT (sugars l2 d12 l3, PS)	79	–	–	–

Sequence	target mRNA inhibition (Human Neuronal Cell, 7.5 µM) [%]	target mRNA inhibition (Human Neuronal Cell, 0.2 µM) [%]	target mRNA inhibition (Human Neuronal Cell, 1 µM) [%]	further results
CAGTTTAAATTCACAC (sugars l3 d10 l3, PS)	–	34	46	–
CATTATTATTTAACCTT (sugars l2 d11 l4, PS)	–	-2	14	–
CATTTACAAGCACATA (sugars l2 d10 l4, PS)	–	43	37	–
CCAAATAAGCAAACTC (sugars l3 d10 l3, PS)	–	60	39	–
CCACCTAAGACCTCAA (sugars l2 d10 l4, PS)	–	53	60	–
CCACTGATTTCCTTAAA (sugars l4 d11 l2, PS)	–	40	57	–
CCATACAGTATATACA (sugars l4 d10 l2, PS)	–	31	56	–
CCATTTATTTCCATTTAT (sugars l3 d12 l3, PS)	–	38	59	–
CCATTTATTTCCATTTATT (sugars lddldddddddddlldlll, PS)	59	–	–	–
CCATTTATTTCCATTTATTT (sugars ldldddddddddddllddll, PS)	52	–	–	–
CCCAAATAAGCAAACT (sugars l4 d10 l2, PS)	–	35	43	–
CCCATTTCTAACATTTAC (sugars l3 d12 l3, PS)	–	50	64	–
CCCTTATAGTTATTAA (sugars l3 d10 l3, PS)	–	26	13	–
CCTAAGCTCCATATTTA (sugars l3 d11 l3, PS)	–	30	47	–
CCTACATCTCATACTTG (sugars l3 d12 l2, PS)	–	–	–	target mRNA inhibition [1]: 96.1%
CCTACATCTCATACTTG (sugars l4 d11 l2, PS)	–	-13	17	target mRNA inhibition (Human Neuronal Cell, 5 µM): 12%; target mRNA inhibition [1]: 94.2%
CCTATGTTAATACTTT (sugars l4 d10 l2, PS)	–	25	29	–
CCTCAATACTCTACTT (sugars l4 d10 l2, PS)	–	43	54	–
CCTCTGCTTATAACTT (sugars l3 d10 l3, PS)	–	47	68	–
CCTTAGTATTACAATT (sugars l4 d10 l2, PS)	–	58	71	–
CCTTTAATGCTTCTAAC (sugars l2 d11 l4, PS)	–	35	53	–
